# Columns and labels:
# [1] = tested on: Huh7.5.1 cells; assay: Cytotoxicity/cell viability assay (CellTiter-Glo); assay type: cell-based; conditions: 48 hours; hEP up to 100 μg/ml (~14 μM)
# Description: FIGS. 1A-1C. A human apoE derived peptide (hEP) suppresses HCV infection. (A) Schematic illustration of apoE protein domains and the amino acid sequences of hEP and mEP peptides. The amino acid sequences shown are hEP-1 (SEQ ID NO: 6) and mEP (SEQ ID NO: 20). (B) Dose dependent inhibition of HCVcc infection by hEP. Huh7.5.1 cells were infected with JFH-1 HCVcc-Luc (MOI˜0.5) in the presence of hEP or mEP for 2 hours. After removal of virus and peptides, cells were further incubated for 48 hours prior to luciferase assay. Data are presented as % inhibition relative to control infections in which cells were treated with DMSO (0%). Results are expressed as mean±standard deviation (s.d.) (n=3). (C). Huh7.5.1 cells were treated with hEP or DMSO at indicated doses for 48 hours. The effect of hEP on cell viability was measured by a CellTiter Glo assay kit.
# Huh7.5.1 cells (10^5 per well) were treated with hEP or DMSO at various concentrations for 48 hours in 24-well plates. The numbers of viable cells in culture were determined using the CELLTITER-GLO® Cell Viability Luminescent Assay kit according to the manufacturer's instruction (Promega).
# [2] = tested on: HCVcc-luc; assay: Attachment versus post-attachment inhibition assay; assay type: cell-based, Hepatitis C virus; conditions: heparin 200 μg/ml, anti-CD81 5 μg/ml, hEP 20 μg/ml, bafilomycin A1 10 nM
# Description: (§1) FIGS. 5A-5D. hEP inhibits HCV entry at the attachment step. (A) HCVcc-luc was first mixed with either scrambled peptide or hEP-2 (20 μg/ml) for one hour at room temperature. In Group 1, mixed virus was directly added to Huh7.5.1 cells, whereas in Group 2, virus was purified through ultracentrifuge at 28,000×g for 4 hours in order to remove peptide, and then used to infect Huh7.5.1 cells. **p<0.005. (B) The kinetics of hEP- and bafilomycin A1-mediated inhibition were determined by time-of-addition assays, as described in the examples section. Fitted lines represent sigmoidal time-dependent curves (mean of n=3; error bars, s.d.). (C) HCVcc-Luc was added to Huh7.5.1 cells at 4° C. and incubated for 1.5 hrs. Unbound virus was removed by 2 washes with cold media, fresh media was added, and the cells were shifted to 37° C. to allow synchronous infection to proceed. Heparin (200 μg/ml), anti-CD81 monoclonal antibody (5 μg/ml), hEP (20 μg/ml), or bafilomycin A1 (10 nM) were present in the media either continuously, during the 4° C. incubation only (attachment), or during the 37° C. incubation phase only (post-attachment). % Inhibition was calculated as 100-percent infection relative to control infections containing DMSO or an isotype antibody control containing 0.01% sodium azide (for anti-CD81 only) (mean of n=3; error bars, s.d.). (D) The effects of hEP (2.7 μM) or scrambled peptide on HCV binding were determined as described in the examples section. Results were calculated as relative RNA copies with numbers obtained from the scrambled peptide treated wells set to 100 (mean of n=3; error bars, s.d.). **p<0.005.
# To investigate the mechanistic action of hEP, three sets of experiments were conducted. First, hEP-2 (SEQ ID NO: 9) or scrambled peptide-treated HCVcc were purified through ultracentrifugation to remove the peptide and then used to infect naïve Huh7.5.1 cells. […] Second, to determine the kinetics of inhibition, a time-of-addition experiment was conducted. HCV remained sensitive to bafilomycin A1, a fusion inhibitor that prevents endosome acidification, until 3 hours after the 37° C. temperature shift (FIG. 5B), which is consistent with previous reports (Koutsoudakis et al., J Virol 2006; 80:5308-5320). […] In order to determine whether hEP-2 (SEQ ID NO: 9) blocks infection at the initial attachment step or a downstream event in the HCV entry process, hEP-2 (SEQ ID NO: 9) was either added together with HCVcc to cells during the 4° C. attachment step only, and then removed prior to shifting the temperature to 37° C., or added only after the temperature shift. As a positive control, hEP-1 was present during the entire course of the experiment. […] Finally, the direct binding of virions to cell surface was measured using a real-time PCR based assay.
# [3] = tested on: HCVcc-luc; assay: Time-of-addition assay; assay type: cell-based, Hepatitis C virus; conditions: 10 nM bafilomycin A1
# Description: as §1, with “bars, s.d.). […] Heparin (200” for “bars, s.d.). (C) HCVcc-Luc was added to Huh7.5.1 cells at 4° C. and incubated for 1.5 hrs. Unbound virus was removed by 2 washes with cold media, fresh media was added, and the cells were shifted to 37° C. to allow synchronous infection to proceed. Heparin (200”, “s.d.). **p<0.005. […]” for “s.d.). **p<0.005.”
SMILES,Cytotoxicity (cell viability) [1],Inhibition when present after the temperature shift only (post-attachment) [2],Time after 37° C. temperature shift until which HCV remained sensitive [3]
"C[C@H](N)C(=O)N[C@@H]1[C@H]2C(=C(O)C[C@@H](O)[C@@H]2O)C(=O)O[C@]1(C)C(Cl)Cl [Bactobolin, reference compound]",induced significant cell death,–,–
"CO/C1=C\C(C)=C\[C@@H](C)[C@@H](O)[C@@H](C)C/C(C)=C/C=C/[C@H](OC)[C@@H]([C@@H](C)[C@@H](O)[C@H](C)[C@@]2(O)C[C@@H](O)[C@H](C)[C@@H](C(C)C)O2)OC1=O [bafilomycin A1, reference compound]",–,most effective,≤ 3 h

# Reference: patent US10125184B2, “Apolipoprotein E polypeptides and their use” (priority 2011, dated 2018)
